What was measured:
APOL1 G2 [1] = target: T1, APOL1 G2 (Homo sapiens, UniProt O14791, DEL388-389); assay: APOL1 G2 FLIPR calcium influx assay (HEK T-REx/GCaMP6f/APOL1 G2 K6.3 cells); format: cell-based; settings: HEK293 clone expressing GCaMP6f, doxycycline-induced APOL1 G2; prevention of calcium influx; geometric mean of at least 2 assay runs
T1 construct: expressed in transfected cells; host or cells: HEK293/T-REx APOL1 G2 clone #2, doxycycline-inducible
T1 sequence (O14791 with tags, fused parts or gaps DEL388-389): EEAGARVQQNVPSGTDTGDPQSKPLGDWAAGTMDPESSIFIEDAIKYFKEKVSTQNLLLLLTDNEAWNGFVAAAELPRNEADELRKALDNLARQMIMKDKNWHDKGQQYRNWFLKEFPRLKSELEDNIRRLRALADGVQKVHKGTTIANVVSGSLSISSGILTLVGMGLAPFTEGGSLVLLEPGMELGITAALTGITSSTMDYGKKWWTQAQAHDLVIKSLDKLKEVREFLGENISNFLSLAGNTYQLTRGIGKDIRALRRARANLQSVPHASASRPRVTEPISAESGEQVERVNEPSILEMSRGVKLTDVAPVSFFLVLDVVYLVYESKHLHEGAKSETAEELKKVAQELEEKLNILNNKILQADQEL
Procedure, shortened: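 HEK293 clone stably expressing GCaMP6f, APOL1 G2 induced with doxycycline for 6 h; compounds (duplicate 8-point dose response) preincubated 10 min at room temperature in Ca2+-free Tyrode's buffer, pH 7.4. Ca2+ added to 5 mM final, influx read on FLIPR; AC50 is geometric mean of ≥2 runs.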

APOL1 G2 [2] = target: T1, APOL1 G2; assay: APOL1 G2 HEK293 rescue of cell death caused by overexpression of APOL1 (CellTiter-Glo); format: cell-based; settings: HEK293/T-REx APOL1 G2 clone #2, doxycycline induction, 17 hours, CellTiter-Glo luminescence; reversal of cell death; geometric mean of at least 2 assay runs
Procedure, shortened: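 Doxycycline (6 ng/mL)-induced HEK293/T-REx APOL1 G2 clone seeded at 5,000 cells/well with compound in duplicate 8-point 3-fold series (0.5% DMSO), 17 h at 37 °C. CellTiter-Glo luminescence; EC50 from four-parameter logistic fit, geometric mean of ≥2 runs.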

Structure (SMILES): CC(C(O)c1cc(Cl)cc(C#N)c1)N1C[C@@H](COc2ccc(S(C)(=O)=O)cc2)[C@H](C)C1 (single isomer, unassigned) [Compound 102, 3-chloro-5-((1R,2R or 1S,2S)-1-hydroxy-2-((3S,4S)-3-methyl-4-((4-(methylsulfonyl)phenoxy)methyl)pyrrolidin-1-yl)propyl)benzonitrile]
- AC50 (APOL1 G2 [1]): 744 nM
- EC50 (APOL1 G2 [2]): > 10000 nM

Structure (SMILES): C[C@@H]1C[C@H](COc2ccc(S(C)(=O)=O)cc2)CN1C1CCc2c(C#N)cc(Cl)cc2C1 (single isomer, unassigned) [Compound 7, (6R or 6S)-3-chloro-6-[(2R,4S)-4-[(4-methanesulfonylphenoxy)methyl]-2-methylpyrrolidin-1-yl]-5,6,7,8-tetrahydronaphthalene-1-carbonitrile]
- AC50 (APOL1 G2 [1]): 1540 nM
- EC50 (APOL1 G2 [2]): 195 nM

Structure (SMILES): C[C@@H]1C[C@H](COc2ccc(S(=O)(=O)CCO)cc2)CN1C1CCc2ccc(C#N)cc2C1 (stereo partly drawn) [Compound 58, 7-[(2R,4S)-4-{[4-(2-hydroxyethanesulfonyl)phenoxy]methyl}-2-methylpyrrolidin-1-yl]-5,6,7,8-tetrahydronaphthalene-2-carbonitrile]
- AC50 (APOL1 G2 [1]): 581 nM
- EC50 (APOL1 G2 [2]): 43.5 nM

Structure (SMILES): CS(=O)(=O)C1(c2ccc(OC[C@@H]3CN(CCc4cc(Cl)cc(C#N)c4)CCN3)cc2)COC1 [Compound 111, 3-chloro-5-{2-[(3S)-3-{[4-(3-methanesulfonyloxetan-3-yl)phenoxy]methyl}piperazin-1-yl]ethyl}benzonitrile]
- AC50 (APOL1 G2 [1]): < 116 nM
- EC50 (APOL1 G2 [2]): 137 nM

Structure (SMILES): CS(=O)(=O)c1ccc(OC[C@@H]2CN(CCc3cccc(C#N)c3)CCN2)cc1C(F)(F)F [Compound 113, 3-{2-[(3S)-3-{[4-methanesulfonyl-3-(trifluoromethyl)phenoxy]methyl}piperazin-1-yl]ethyl}benzonitrile]
- AC50 (APOL1 G2 [1]): 634 nM
- EC50 (APOL1 G2 [2]): 726 nM

Structure (SMILES): CC(C(O)c1cc(Cl)cc(C#N)c1)N1C[C@@H](COc2ccc(S(C)(=O)=O)cc2)[C@H](C)C1 (single isomer, unassigned) [Compound 103, 3-chloro-5-((1S,2S or 1R,2R)-1-hydroxy-2-((3S,4S)-3-methyl-4-((4-(methylsulfonyl)phenoxy)methyl)pyrrolidin-1-yl)propyl)benzonitrile]
- AC50 (APOL1 G2 [1]): 905 nM
- EC50 (APOL1 G2 [2]): 655 nM

Structure (SMILES): CN=S(C)(=O)c1ccc(OC[C@@H]2CN(CCc3cccc(C#N)c3)C[C@H]2C)cn1 (single isomer, unassigned) [Compound 72]
- AC50 (APOL1 G2 [1]): 183 nM
- EC50 (APOL1 G2 [2]): 217 nM

Structure (SMILES): C[C@@H]1C[C@H](COc2ccc(S(=O)(=O)CCO)cc2)CN1C1CCc2c(C#N)cc(Cl)cc2C1 (single isomer, unassigned) [Compound 56, (6R or 6S)-3-chloro-6-[(2R,4S)-4-{[4-(2-hydroxyethanesulfonyl)phenoxy]methyl}-2-methylpyrrolidin-1-yl]-5,6,7,8-tetrahydronaphthalene-1-carbonitrile]
- AC50 (APOL1 G2 [1]): 714 nM
- EC50 (APOL1 G2 [2]): 185 nM

Structure (SMILES): C[C@@H]1C[C@H](COc2ccc(S(=O)(=O)CCO)cc2)CN1C1CCc2ccc(Cl)cc2C1 (single isomer, unassigned) [Compound 62, 2-(4-{[(3S,5R)-1-[(2R or 2S)-7-chloro-1,2,3,4-tetrahydronaphthalen-2-yl]-5-methylpyrrolidin-3-yl]methoxy}benzenesulfonyl)ethan-1-ol]
- AC50 (APOL1 G2 [1]): 462 nM
- EC50 (APOL1 G2 [2]): 201 nM

Structure (SMILES): Cc1cc(OC[C@H]2C[C@@H](C)N(CC(O)c3cccc(C#N)c3)C2)cnc1S(C)(=O)=O (single isomer, unassigned) [Compound 95, 3-[(1R or 1S)-1-hydroxy-2-[(2R,4S)-4-{[(6-methanesulfonyl-5-methylpyridin-3-yl)oxy]methyl}-2-methylpyrrolidin-1-yl]ethyl]benzonitrile]
- AC50 (APOL1 G2 [1]): 1040 nM
- EC50 (APOL1 G2 [2]): 1140 nM

Structure (SMILES): CC(C(O)c1cc(Cl)cc(C#N)c1)N1C[C@@H](COc2ccc(S(C)(=O)=O)cc2)C[C@H]1C (single isomer, unassigned) [Compound 99, 3-chloro-5-[(1S,2R or 1R,2S or 1S,2S or 1R,2R)-1-hydroxy-2-[(2R,4S)-4-[(4-methanesulfonylphenoxy)methyl]-2-methylpyrrolidin-1-yl]propyl]benzonitrile]
- AC50 (APOL1 G2 [1]): 1690 nM
- EC50 (APOL1 G2 [2]): 252 nM

Structure (SMILES): Cc1cc(OC[C@@H]2CN(CCc3cc(Cl)cc(C#N)c3)C[C@H]2C)ccc1S(C)(=O)=O [Compound 84, 3-chloro-5-{2-[(3S,4S)-3-[(4-methanesulfonyl-3-methylphenoxy)methyl]-4-methylpyrrolidin-1-yl]ethyl}benzonitrile]
- AC50 (APOL1 G2 [1]): 182 nM
- EC50 (APOL1 G2 [2]): 28.6 nM

Structure (SMILES): C[C@@H]1CN(CCc2cc(Cl)cc(C#N)c2)C[C@H]1COc1ccc(C2(S(C)(=O)=O)CC2)cc1 [Compound 77, 3-chloro-5-{2-[(3S,4S)-3-{[4-(1-methanesulfonylcyclopropyl)phenoxy]methyl}-4-methylpyrrolidin-1-yl]ethyl}benzonitrile]
- AC50 (APOL1 G2 [1]): 189 nM
- EC50 (APOL1 G2 [2]): 176 nM

Structure (SMILES): C[C@@H]1CN(CCc2cc(Cl)cc(C#N)c2)C[C@H]1COc1cc(F)c(S(C)(=O)=O)c(F)c1 [Compound 82, 3-chloro-5-{2-[(3S,4S)-3-[(3,5-difluoro-4-methanesulfonylphenoxy)methyl]-4-methylpyrrolidin-1-yl]ethyl}benzonitrile]
- AC50 (APOL1 G2 [1]): 370 nM
- EC50 (APOL1 G2 [2]): 165 nM

Structure (SMILES): CN1CC(S(=O)(=O)c2ccc(OC[C@@H]3CN(CCc4cccc(Cl)c4)CCN3)cc2)C1 [Compound 108, (3S)-1-[2-(3-chlorophenyl)ethyl]-3-({4-[(1-methylazetidin-3-yl)sulfonyl]phenoxy}methyl)piperazine]
- AC50 (APOL1 G2 [1]): 337 nM
- EC50 (APOL1 G2 [2]): 664 nM

Structure (SMILES): CS(=O)(=O)c1ccc(OC[C@@H]2CCCN(C3CCc4ccc(Cl)cc4C3)C2)cc1 (single isomer, unassigned) [Compound 133, (3R)-1-[(2R or 2S)-7-chloro-1,2,3,4-tetrahydronaphthalen-2-yl]-3-[(4-methanesulfonylphenoxy)methyl]piperidine]
- AC50 (APOL1 G2 [1]): 1150 nM
- EC50 (APOL1 G2 [2]): 1910 nM

Structure (SMILES): C[C@H]1C[C@H](COc2ccc(S(C)(=O)=O)cc2)CN1CCc1cccc(Cl)c1 [Compound 143, (2S,4S)-1-[2-(3-chlorophenyl)ethyl]-4-[(4-methanesulfonylphenoxy)methyl]-2-methylpyrrolidine]
- AC50 (APOL1 G2 [1]): 936 nM
- EC50 (APOL1 G2 [2]): 1200 nM

Structure (SMILES): C[C@@H]1CN(CCc2cccc(C#N)c2)C[C@H]1COc1ccc(S(C)(=O)=NCCS(C)(=O)=O)cc1 (single isomer, unassigned) [Compound 70]
- AC50 (APOL1 G2 [1]): 236 nM
- EC50 (APOL1 G2 [2]): 342 nM

Structure (SMILES): CC(C(O)c1cc(Cl)cc(C#N)c1)N1C[C@@H](COc2ccc(S(C)(=O)=O)cc2)[C@H](C)C1 (single isomer, unassigned) [Compound 100, 3-chloro-5-((1R,2S or 1S,2R)-1-hydroxy-2-((3S,4S)-3-methyl-4-((4-(methylsulfonyl)phenoxy)methyl)pyrrolidin-1-yl)propyl)benzonitrile]
- AC50 (APOL1 G2 [1]): 575 nM
- EC50 (APOL1 G2 [2]): 948 nM

Structure (SMILES): CC(Cc1cc(Cl)cc(C#N)c1)N1C[C@@H](COc2ccc(S(C)(=O)=O)cc2)[C@H](C)C1 (single isomer, unassigned) [Compound 18, 3-chloro-5-[(2S or 2R)-2-[(3S,4S)-3-[(4-methanesulfonylphenoxy)methyl]-4-methylpyrrolidin-1-yl]propyl]benzonitrile]
- AC50 (APOL1 G2 [1]): 412 nM
- EC50 (APOL1 G2 [2]): 262 nM

Structure (SMILES): C[C@@H]1C[C@H](COc2ccc(S(=O)(=O)CCCS(C)(=O)=O)cc2)CN1C1CCc2c(C#N)cccc2C1 (stereo partly drawn) [Compound 40, 6-[(2R,4S)-4-{[4-(3-methanesulfonylpropanesulfonyl)phenoxy]methyl}-2-methylpyrrolidin-1-yl]-5,6,7,8-tetrahydronaphthalene-1-carbonitrile]
- AC50 (APOL1 G2 [1]): 534 nM
- EC50 (APOL1 G2 [2]): 74.6 nM

Structure (SMILES): CC(=O)N(C)CCS(=O)(=O)c1ccc(OC[C@@H]2CN(CCc3cccc(C#N)c3)C[C@H]2C)cc1 [Compound 76, N-[2-(4-{[(3S,4S)-1-[2-(3-cyanophenyl)ethyl]-4-methylpyrrolidin-3-yl]methoxy}benzenesulfonyl)ethyl]-N-methylacetamide]
- AC50 (APOL1 G2 [1]): 250 nM
- EC50 (APOL1 G2 [2]): 222 nM

Structure (SMILES): C[C@@H]1CN(CC(O)c2cccc(C#N)c2)C[C@H]1COc1ccc(S(C)(=O)=O)nc1 (single isomer, unassigned) [Compound 105, 3-[(1S or 1R)-1-hydroxy-2-[(3S,4S)-3-{[(6-methanesulfonylpyridin-3-yl)oxy]methyl}-4-methylpyrrolidin-1-yl]ethyl]benzonitrile]
- AC50 (APOL1 G2 [1]): > 10000 nM
- EC50 (APOL1 G2 [2]): > 10000 nM

Structure (SMILES): C[C@@H]1CN(C2CCc3ccc(Cl)cc3C2)C[C@H]1COc1ccc(S(C)(=O)=O)cc1 (stereo partly drawn) [Compound 14, (3S,4S)-1-[7-chloro-1,2,3,4-tetrahydronaphthalen-2-yl]-3-[(4-methanesulfonylphenoxy)methyl]-4-methylpyrrolidine]
- AC50 (APOL1 G2 [1]): 767 nM
- EC50 (APOL1 G2 [2]): 544 nM

Reference: patent publication US20260055083A1, “APOL1 INHIBITORS AND METHODS OF USE” (Maze Therapeutics, Inc., priority 2022, published 2026)
